Experimental data: ChEMBL document CHEMBL1275444, “Fitness trade-offs in blaTEM evolution” (2008)
Converted amounts (≈) assume the structure as drawn.

Columns and labels:
Escherichia coli [1] = experiment: Antibacterial activity against Escherichia coli TP1 harboring pBR322 carrying TEM-12 assessed as inhibition of bacterial growth at 64 ug/ml after 18 hrs; type: functional; details: TP1, 18 h
Escherichia coli [2] = experiment: Antibacterial activity against Escherichia coli TP1 harboring pBR322 carrying TEM-10 assessed as inhibition of bacterial growth at 256 ug/ml after 18 hrs; type: functional; details: TP1, 18 h
Escherichia coli [3] = experiment: Antibacterial activity against Escherichia coli TP1 harboring pBR322 carrying TEM-10 assessed as bacterial density up to 64 ug/ml after 18 hrs; type: functional
Escherichia coli [4] = experiment: Antibacterial activity against Escherichia coli TP1 by broth microdilution method
Escherichia coli [5] = experiment: Antibacterial activity against Escherichia coli TP1 harboring pBR322 carrying TEM-12 by broth microdilution method; type: functional
Escherichia coli [6] = experiment: Antibacterial activity against Escherichia coli TP1 harboring pBR322 carrying TEM-1 assessed as inhibition of bacterial growth at 2 ug/ml after 18 hrs; type: functional; details: TP1, 18 h
Escherichia coli [7] = experiment: Antibacterial activity against Escherichia coli TP1 harboring pBR322 carrying TEM-12 assessed as inhibition of bacterial growth at 256 ug/ml after 18 hrs; type: functional; details: TP1, 18 h
Escherichia coli [8] = experiment: Antibacterial activity against Escherichia coli TP1 harboring pBR322 carrying TEM-1 by broth microdilution method; type: functional
Escherichia coli [9] = experiment: Antibacterial activity against Escherichia coli TP1 harboring pBR322 carrying TEM-10 by broth microdilution method; type: functional
Escherichia coli [10] = experiment: Antibacterial activity against Escherichia coli TP1 harboring pBR322 carrying TEM-12 assessed as bacterial density at 512 ug/ml after 18 hrs; type: functional
Escherichia coli [11] = experiment: Antibacterial activity against Escherichia coli TP1 harboring pBR322 carrying TEM-10 assessed as bacterial density at 512 ug/ml after 18 hrs; type: functional
Escherichia coli [12] = experiment: Antibacterial activity against Escherichia coli TP1 harboring pBR322 carrying TEM-1 assessed as bacterial density at 1024 ug/ml after 18 hrs; type: functional
Escherichia coli [13] = experiment: Antibacterial activity against Escherichia coli TP1 harboring pBR322 carrying TEM-10 assessed as inhibition of bacterial growth at 4096 ug/ml after 18 hrs; type: functional; details: TP1, 18 h
Escherichia coli [14] = experiment: Antibacterial activity against Escherichia coli TP1 harboring pBR322 carrying TEM-10 assessed as bacterial density at 2048 ug/ml after 18 hrs relative to control; type: functional
Escherichia coli [15] = experiment: Antibacterial activity against Escherichia coli TP1 harboring pBR322 carrying TEM-10 assessed as bacterial density at 1024 ug/ml after 18 hrs; type: functional
Escherichia coli [16] = experiment: Antibacterial activity against Escherichia coli TP1 harboring pBR322 carrying TEM-1 assessed as inhibition of bacterial growth at 4096 ug/ml after 18 hrs; type: functional; details: TP1, 18 h
Escherichia coli [17] = experiment: Antibacterial activity against Escherichia coli TP1 harboring pBR322 carrying TEM-12 assessed as inhibition of bacterial growth at 4096 ug/ml after 18 hrs; type: functional; details: TP1, 18 h
Escherichia coli [18] = experiment: Antibacterial activity against Escherichia coli TP1 harboring pBR322 carrying TEM-12 assessed as bacterial density at 2048 ug/ml after 18 hrs relative to control; type: functional
Escherichia coli [19] = experiment: Antibacterial activity against Escherichia coli TP1 harboring pBR322 carrying TEM-1 assessed as bacterial density at 512 ug/ml after 18 hrs; type: functional
Escherichia coli [20] = experiment: Antibacterial activity against Escherichia coli TP1 harboring pBR322 carrying TEM-1 assessed as bacterial density at 2048 ug/ml after 18 hrs relative to control; type: functional
Escherichia coli [21] = experiment: Antibacterial activity against Escherichia coli TP1 harboring pBR322 carrying TEM-12 assessed as bacterial density at 1024 ug/ml after 18 hrs; type: functional

`CC(C)(O/N=C(\C(=O)N[C@@H]1C(=O)N2C(C(=O)[O-])=C(C[n+]3ccccc3)CS[C@H]12)c1csc(N)n1)C(=O)O` [CEFTAZIDIME] showed an inhibition at 64 µg/mL (Escherichia coli [1]) of 64%, an inhibition at 256 µg/mL (Escherichia coli [2]) of 17% and an Activity (Escherichia coli [3]) of 100%. It also gave an MIC (Escherichia coli [4]) of 1 µg/mL (≈ 1.83 µM), an MIC (Escherichia coli [5]) of 512 µg/mL (≈ 937 µM) and an inhibition at 2 µg/mL (Escherichia coli [6]) of 99%. It also gave an inhibition at 256 µg/mL (Escherichia coli [7]) of 88%, an MIC (Escherichia coli [8]) of 8 µg/mL (≈ 14.6 µM) and an MIC (Escherichia coli [9]) of over 1020 µg/mL.
`CC1(C)S[C@@H]2[C@H](NC(=O)[C@H](N)c3ccccc3)C(=O)N2[C@H]1C(=O)O` [AMPICILLIN] gave an Activity (Escherichia coli [10]) of 5%, an Activity (Escherichia coli [11]) of 5% and an Activity (Escherichia coli [12]) of 5%. For the same molecule, the inhibition at 4096 µg/mL (Escherichia coli [13]) was 78%, the Activity (Escherichia coli [14]) was 42% and the Activity (Escherichia coli [15]) was 5%. The inhibition at 4096 µg/mL (Escherichia coli [16]) was 25%, the MIC (Escherichia coli [4]) was 32 µg/mL (≈ 91.6 µM) and the MIC (Escherichia coli [5]) was 16400 µg/mL (≈ 46900 µM). The inhibition at 4096 µg/mL (Escherichia coli [17]) was 36%, the Activity (Escherichia coli [18]) was 72% and the Activity (Escherichia coli [19]) was 5%. The Activity (Escherichia coli [20]) was 95%, the MIC (Escherichia coli [8]) was 16400 µg/mL (≈ 46900 µM) and the Activity (Escherichia coli [21]) was 5%. For the same molecule, the MIC (Escherichia coli [9]) was 16400 µg/mL (≈ 46900 µM).
